Columns and labels:
[1] = target: T1, xanthine oxidase (XOD, from bovine milk) (Bos taurus, UniProt P80457); assay: intrinsic fluorescence quenching; assay type: binding; conditions: 0.2 M PBS pH 7.5; 298, 304 and 310 K; static quenching
[2] = target: T1, xanthine oxidase (XOD, from bovine milk); assay: xanthine oxidation, absorbance at […] nm, microplate; assay type: biochemical

T1 sequence (P80457 2-1332): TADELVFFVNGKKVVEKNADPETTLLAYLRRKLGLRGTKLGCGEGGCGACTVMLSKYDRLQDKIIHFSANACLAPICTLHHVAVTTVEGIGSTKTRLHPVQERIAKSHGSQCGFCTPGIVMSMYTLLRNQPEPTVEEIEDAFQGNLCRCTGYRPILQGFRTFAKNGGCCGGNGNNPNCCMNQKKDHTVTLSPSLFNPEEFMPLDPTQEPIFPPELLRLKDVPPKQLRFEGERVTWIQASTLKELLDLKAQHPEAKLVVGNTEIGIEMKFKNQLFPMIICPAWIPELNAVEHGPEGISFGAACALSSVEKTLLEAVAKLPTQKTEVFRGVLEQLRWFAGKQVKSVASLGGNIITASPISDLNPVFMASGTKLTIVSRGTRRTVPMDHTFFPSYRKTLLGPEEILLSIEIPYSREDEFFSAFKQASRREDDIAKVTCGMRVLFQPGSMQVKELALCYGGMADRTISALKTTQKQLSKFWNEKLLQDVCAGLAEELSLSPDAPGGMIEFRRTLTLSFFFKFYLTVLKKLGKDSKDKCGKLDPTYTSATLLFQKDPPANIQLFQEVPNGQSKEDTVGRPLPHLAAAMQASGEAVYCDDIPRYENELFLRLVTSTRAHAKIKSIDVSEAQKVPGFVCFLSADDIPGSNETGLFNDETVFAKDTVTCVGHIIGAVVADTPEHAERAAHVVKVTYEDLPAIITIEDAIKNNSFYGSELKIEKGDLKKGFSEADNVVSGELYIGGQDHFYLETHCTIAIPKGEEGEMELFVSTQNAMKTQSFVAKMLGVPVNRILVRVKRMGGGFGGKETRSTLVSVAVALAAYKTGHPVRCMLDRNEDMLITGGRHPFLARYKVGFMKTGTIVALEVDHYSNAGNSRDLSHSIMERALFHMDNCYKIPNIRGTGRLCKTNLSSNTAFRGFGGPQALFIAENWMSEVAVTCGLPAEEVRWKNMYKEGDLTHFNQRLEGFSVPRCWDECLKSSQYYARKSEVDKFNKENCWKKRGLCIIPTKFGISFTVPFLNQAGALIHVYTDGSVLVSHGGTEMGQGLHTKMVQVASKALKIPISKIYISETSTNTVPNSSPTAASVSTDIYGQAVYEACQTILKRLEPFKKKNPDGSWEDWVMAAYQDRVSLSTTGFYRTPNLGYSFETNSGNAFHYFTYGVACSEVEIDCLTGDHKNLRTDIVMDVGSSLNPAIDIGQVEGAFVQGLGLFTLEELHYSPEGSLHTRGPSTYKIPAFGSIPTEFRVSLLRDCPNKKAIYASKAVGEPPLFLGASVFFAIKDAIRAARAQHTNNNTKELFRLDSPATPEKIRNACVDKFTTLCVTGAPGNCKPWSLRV

| IC50 [2] [µM] | SMILES | intrinsic fluorescence quenching (Stern-Volmer), excitation 280 nm [1] |
| --- | --- | --- |
| 1240 ± 20 | CC(=O)c1c(O)cccc1O [2,6-Dihydroxyacetophenone] | fluorescence quenching mechanism of DHAP, 4-HPEA and HBA for XOD were a single type |
| 24500 ± 800 | OCCc1ccc(O)cc1 [4-Hydroxyphenethyl alcohol] | fluorescence quenching mechanism of DHAP, 4-HPEA and HBA for XOD were a single type |

| SMILES | IC50 [2] [µM] | intrinsic fluorescence quenching (Stern-Volmer), excitation 280 nm [1] |
| --- | --- | --- |
| O=Cc1ccc(O)cc1 [4-Hydroxybenzaldehyde] | 2.67 ± 0.9 | fluorescence quenching mechanism of DHAP, 4-HPEA and HBA for XOD were a single type |
